# Data taken from patent US20240018611A1, “IMMUNE MOLECULE VIRUS PARTICLE DETECTION KIT” (priority 2021, published 2024).
# What was measured:
# [1] = tested on: HBV; assay: HBV DNA in supernatant of ETV-treated HepAD38 cells (immune capture of virus particles + qPCR); type: cell-based, hepatitis B virus (HBV)
# Method: (§1) The inventor selects the supernatant of HBV-secreting cells ([…] and HepAD38) for testing and verification. HepG2.2.15 and HepAD38 are the two cell lines that are commonly used in the laboratory to stably express HBV, and entecavir (ETV) is the first-line drug in clinical treatment of hepatitis B at present. The inventor uses different concentration gradients of ETV (0.1 μM, 1 μM, 10 μM, PBS as control group). Then, the virus particles are captured by virus particle-antibody (the envelope PreS1 monoclonal antibody and the core particle HBc monoclonal antibody)-biotin-streptavidin-magnetic beads, and the genomic DNA of HBV in the corresponding virus particles is detected.
# (§2) In order to study the dynamic changes of HBV DNA with different components, two cell lines, HepG2.2.15 and HepAD38, which stably express HBV, are pretreated with different concentration gradients of ETV (0.1 μM, 1 μM, 10 μM and a PBS control group), and the supernatant is discarded after 24 hours, and replaced with fresh Dulbecco's modified eagle medium (DMEM) and ETV with different concentration gradients. After 72 hours, the supernatant is transferred to an EP tube, and the virus particles in the supernatant are captured by PreS1 antibody-magnetic beads and HBc antibody-magnetic beads respectively, and the captured products are detected by qPCR.
# [2] = tested on: HBV; assay: HBV DNA in supernatant of ETV-treated HepG2.2.15 cells (immune capture of virus particles + qPCR); type: cell-based, hepatitis B virus (HBV)
# Method: as §1, §2
# The above research results mean that the capture method can separate and capture virus particles in cell supernatant. […] The same conclusion is obtained in HepAD38 cell experiment (FIGS. 10A-10B).
# [3] = ETV 0.1 μM, 1 μM, 10 μM, PBS control, antibody-biotin-streptavidin-magnetic bead capture, FIGS. 2A-2B
compound,measurement,setting,value
"C=C1[C@H](CO)[C@@H](O)C[C@@H]1n1cnc2c(=O)[nH]c(N)nc21 [ETV, entecavir]","viral genomic DNA (total, complete virus particles, core particles) in cell supernatant versus ETV concentration",[1]; [3],"The higher the concentration of ETV, the lower the viral genomic DNA detected by the three methods"
same,"total HBV genomic DNA, complete virus particle genomic DNA and virus core particle DNA over time","[1]; ETV 1 uM, FIGS. 2C-2D",all decreased rapidly in two days
same,"viral genomic DNA (total, complete virus particles, core particles) in cell supernatant versus ETV concentration",[2]; [3],"The higher the concentration of ETV, the lower the viral genomic DNA detected by the three methods"
same,copies of HBV DNA in the supernatant,"[2]; ETV 0.1 μM, 1 μM, 10 μM, supernatant after 72 hours, PreS1/HBc antibody-magnetic bead capture, FIGS. 9A-9B",decreased in a dose-dependent manner
same,"total HBV genomic DNA, complete virus particle genomic DNA and virus core particle DNA over time","[2]; ETV 1 uM, FIGS. 2C-2D",all decreased rapidly in two days
